Assay results from ChEMBL document CHEMBL6103545, “Discovery of GS-2278, a Potent and Selective LPAR1 Antagonist for the Treatment of Idiopathic Pulmonary Fibrosis” (J Med Chem, 2025).

Experiments:
[1] = molecular target: T1, Solute carrier organic anion transporter family member 1B1 (Homo sapiens, UniProt Q9Y6L6); test: Inhibition of OATPB1P1 in human hepatocyte by LC-MS analysis; format: cell-based
T1 sequence (Q9Y6L6 whole entry): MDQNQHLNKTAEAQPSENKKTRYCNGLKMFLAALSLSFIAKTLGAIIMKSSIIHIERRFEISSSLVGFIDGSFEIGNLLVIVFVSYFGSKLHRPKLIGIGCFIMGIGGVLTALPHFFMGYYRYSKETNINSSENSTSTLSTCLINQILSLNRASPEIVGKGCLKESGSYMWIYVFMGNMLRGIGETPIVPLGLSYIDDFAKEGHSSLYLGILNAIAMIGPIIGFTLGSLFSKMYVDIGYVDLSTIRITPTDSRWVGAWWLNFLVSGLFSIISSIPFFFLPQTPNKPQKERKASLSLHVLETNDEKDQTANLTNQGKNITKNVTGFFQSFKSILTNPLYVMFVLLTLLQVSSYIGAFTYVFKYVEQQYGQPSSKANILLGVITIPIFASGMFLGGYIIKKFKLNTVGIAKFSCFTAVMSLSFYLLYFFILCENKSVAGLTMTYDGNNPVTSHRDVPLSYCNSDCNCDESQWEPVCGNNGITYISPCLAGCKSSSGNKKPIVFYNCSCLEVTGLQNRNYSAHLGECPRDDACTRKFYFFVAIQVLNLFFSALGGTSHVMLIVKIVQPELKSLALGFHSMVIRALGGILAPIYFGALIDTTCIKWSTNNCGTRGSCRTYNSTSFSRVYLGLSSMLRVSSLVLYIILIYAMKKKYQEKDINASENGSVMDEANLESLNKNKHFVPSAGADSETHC

BCRP (human) = test: Apparent permeability from apical to basolateral side of human BCRP transfected MDCK cells measured after 20 min by LC/MS/MS analysis; format: ADME, cell-based, Canis lupus familiaris; conditions: dog
[2] = molecular target: T2, Lysophosphatidic acid receptor 3 (Homo sapiens, UniProt Q9UBY5); test: Antagonist activity at human LPA3 receptor overexpressed in CHO cells pre-incubated for 1 hr followed by LPA addition by fluorescence based FLIPR calcium assay; format: functional, cell-based
T2 sequence (Q9UBY5 whole entry): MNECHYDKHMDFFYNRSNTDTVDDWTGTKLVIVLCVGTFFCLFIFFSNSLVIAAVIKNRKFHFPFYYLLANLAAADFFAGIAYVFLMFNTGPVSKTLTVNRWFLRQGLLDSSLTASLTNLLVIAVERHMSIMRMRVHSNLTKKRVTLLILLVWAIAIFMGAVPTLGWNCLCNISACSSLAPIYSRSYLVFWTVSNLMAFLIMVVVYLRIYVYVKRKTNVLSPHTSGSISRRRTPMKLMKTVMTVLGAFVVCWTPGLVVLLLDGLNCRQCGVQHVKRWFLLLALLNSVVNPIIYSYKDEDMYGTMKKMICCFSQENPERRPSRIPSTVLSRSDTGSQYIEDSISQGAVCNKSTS

[3] = Mutagenicity in Salmonella typhimurium TA98 by Ames assay; format: toxicity; conditions: salmonella enterica subsp. enterica serovar typhimurium
[4] = Oral bioavailability in male Sprague-Dawley rat at 5 mg/kg measured after 24 hrs by LC/MS/MS analysis; format: ADME, organism-based; conditions: in vivo
[5] = molecular target: Lysophosphatidic acid receptor 1 (Homo sapiens, UniProt Q92633); test: Antagonist activity at human wild-type LPA1 receptor expressed in HEK293 cells assessed as internalization incubated for 30 mins by BRET assay; format: cell-based
[6] = Oral bioavailability in cynomolgus monkey at 5 mg/kg measured after 24 hrs by LC/MS/MS analysis; format: ADME, organism-based, Macaca fascicularis; conditions: in vivo
Cytochrome P450 2C9 = Cytochrome P450 2C9 (Homo sapiens, UniProt P11712); test: Inhibition of CYP2C9 (unknown origin) using midazolam as substrate; format: ADME
[7] = Half-life in Beagle dog at 5 mg/kg, po measured after 24 hrs by LC/MS/MS analysis; format: ADME, organism-based, Canis lupus familiaris; conditions: in vivo
[8] = Apparent permeability from apical to basolateral side in human Caco-2 cells at 10 uM; format: ADME, cell-based
[9] = molecular target: T3, Solute carrier organic anion transporter family member 1B3 (Homo sapiens, UniProt Q9NPD5); test: Inhibition of OATPB1P3 in human hepatocyte by LC-MS analysis; format: cell-based
T3 sequence (Q9NPD5 whole entry): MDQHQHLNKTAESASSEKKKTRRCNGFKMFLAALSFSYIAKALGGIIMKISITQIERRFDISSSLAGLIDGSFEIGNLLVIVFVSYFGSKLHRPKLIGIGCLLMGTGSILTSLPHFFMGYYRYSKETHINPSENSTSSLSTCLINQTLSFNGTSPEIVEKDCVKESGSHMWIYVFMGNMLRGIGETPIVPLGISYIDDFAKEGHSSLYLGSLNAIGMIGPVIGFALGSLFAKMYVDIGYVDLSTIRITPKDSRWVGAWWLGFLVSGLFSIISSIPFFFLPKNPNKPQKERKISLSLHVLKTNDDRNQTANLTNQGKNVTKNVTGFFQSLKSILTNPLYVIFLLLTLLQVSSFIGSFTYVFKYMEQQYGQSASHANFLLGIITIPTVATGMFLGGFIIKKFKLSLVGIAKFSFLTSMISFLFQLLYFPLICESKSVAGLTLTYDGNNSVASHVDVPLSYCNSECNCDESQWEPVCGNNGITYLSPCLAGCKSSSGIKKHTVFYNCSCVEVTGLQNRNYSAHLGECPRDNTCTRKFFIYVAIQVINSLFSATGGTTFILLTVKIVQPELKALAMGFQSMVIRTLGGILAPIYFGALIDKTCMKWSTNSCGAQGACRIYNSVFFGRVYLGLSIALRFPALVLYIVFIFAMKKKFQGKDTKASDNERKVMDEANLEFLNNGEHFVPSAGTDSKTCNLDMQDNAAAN

P-gp (human) [10] = test: Apparent permeability from apical to basolateral side of human P-gp transfected MDCK cells measured after 20 min by LC/MS/MS analysis; format: ADME, cell-based, Canis lupus familiaris; conditions: dog, MDCK-MDR1
[11] = Toxicity in Beagle dog CNS at 10 mg/kg/day, po measured after 28 days by radiotelemetry; format: organism-based, Canis lupus familiaris; conditions: in vivo, 672 h, time 28 day
P-gp (human) [12] = test: Apparent permeability from basolateral to apical side of human P-gp transfected MDCK cells measured after 20 min by LC/MS/MS analysis; format: ADME, cell-based, Canis lupus familiaris; conditions: dog, MDCK-MDR1

Chain of Lysophosphatidic acid receptor 1 (Q92633 whole entry): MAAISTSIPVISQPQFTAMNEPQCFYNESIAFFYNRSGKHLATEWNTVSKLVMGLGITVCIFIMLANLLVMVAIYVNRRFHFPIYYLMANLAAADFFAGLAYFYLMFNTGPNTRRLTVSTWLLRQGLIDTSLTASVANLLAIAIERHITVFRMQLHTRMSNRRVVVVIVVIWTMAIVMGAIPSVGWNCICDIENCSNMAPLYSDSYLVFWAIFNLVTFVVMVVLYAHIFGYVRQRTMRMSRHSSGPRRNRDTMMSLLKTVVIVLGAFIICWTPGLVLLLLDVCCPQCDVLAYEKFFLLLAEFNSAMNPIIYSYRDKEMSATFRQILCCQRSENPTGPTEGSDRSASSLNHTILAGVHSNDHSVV
Chain of Cytochrome P450 2C9 (P11712 whole entry): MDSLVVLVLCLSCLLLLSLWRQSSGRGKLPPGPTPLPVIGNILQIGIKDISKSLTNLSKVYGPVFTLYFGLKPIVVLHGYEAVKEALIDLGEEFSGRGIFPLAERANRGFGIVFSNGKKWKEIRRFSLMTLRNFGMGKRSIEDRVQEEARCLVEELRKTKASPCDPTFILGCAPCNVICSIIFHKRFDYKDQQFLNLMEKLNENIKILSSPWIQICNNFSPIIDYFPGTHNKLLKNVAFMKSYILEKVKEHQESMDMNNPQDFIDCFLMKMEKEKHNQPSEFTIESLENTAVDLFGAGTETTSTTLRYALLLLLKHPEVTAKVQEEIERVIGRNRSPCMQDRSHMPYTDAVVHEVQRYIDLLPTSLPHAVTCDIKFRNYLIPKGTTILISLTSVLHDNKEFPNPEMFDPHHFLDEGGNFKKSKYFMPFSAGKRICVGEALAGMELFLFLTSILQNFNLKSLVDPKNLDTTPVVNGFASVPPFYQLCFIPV

For `C[C@@H](OC(=O)Nc1c(-c2ccc(NC(=O)c3cnc(C(F)(F)F)nc3)cn2)nnn1C)c1cc(F)cnc1F`, the IC50 [1] was 13 µM, the Papp A→B at 20 min (BCRP (human)) was < 0.01 ×10⁻⁶ cm/s and the EC50 [2] was > 10 µM. For the same compound, the Activity [3] was “Non-toxic”, the bioavailability [4] was 40% and the EC50 [5] was 0.0117 µM. The bioavailability [6] was 43%, the “inhibition (INH)” value (Cytochrome P450 2C9) was “Not_active” and the half-life [7] was 2.9 h. For the same compound, the Papp A→B at 10 µM [8] was 0.4 ×10⁻⁶ cm/s, the IC50 [9] was 15 µM and the Papp A→B at 20 min (P-gp (human) [10]) was 0.3 ×10⁻⁶ cm/s. The Activity [11] was “Non-toxic” and the Papp B→A at 20 min (P-gp (human) [12]) was 11 ×10⁻⁶ cm/s.
